This is an account of results in ChEMBL document CHEMBL6083231, “AANAT kinetics of CoASH-targeted electrophiles of tryptamine and related analogs” (Bioorg Med Chem Lett, 2024).

Test [1] addresses T1, Serotonin N-acetyltransferase (Homo sapiens, UniProt Q16613). The test is described as follows: Inhibition of AANAT (unknown origin).
Test [2] has as its target T1, Serotonin N-acetyltransferase. The experiment in a line: Inhibition of human AANAT.

One may read the IC50 as the concentration at which inhibition is half-maximal. Low values mean inhibition by little substance, high ones a need for much substance.

T1 sequence (Q16613 whole entry): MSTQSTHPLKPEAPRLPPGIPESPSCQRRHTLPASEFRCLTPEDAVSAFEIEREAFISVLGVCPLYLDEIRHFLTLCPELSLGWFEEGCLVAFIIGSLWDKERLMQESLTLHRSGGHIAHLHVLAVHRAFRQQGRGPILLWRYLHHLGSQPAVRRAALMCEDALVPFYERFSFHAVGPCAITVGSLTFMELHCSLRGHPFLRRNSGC

In the case of `O=C(CBr)NCCc1c[nH]c2ccccc12`, the IC50 in test [1] was 0.5 µM. This counts as sub-micromolar.

On to `O=C(CCl)NCCc1c[nH]c2ccccc12`, for which it took 5.2 µM to reach half-maximal inhibition in test [1] (IC50). As to `C=CC(=O)NCCc1csc2ccc(OC)cc12`, in test [2], the IC50 turned out to be 25 µM. In other words, the double-digit micromolar range.
